Columns and labels:
[1] = MTT cytotoxicity assay; format: cell-based; conditions: mouse, NIH 3T3 cells, 50 μg/mL, read-out: cellular viability
Description: (§1) Cytotoxicity of lead molecules D2573, D2148, and D63 on NIH 3T3 cells was evaluated by MTT assay. The relative cellular viability of NIH 3T3 cells in the presence of each sample D2573, D2148, and D63 at different concentrations (12.5 μg/mL, 25 μg/mL, and 50 μg/mL) is shown in Fig. 6.
(§2) A cytotoxicity experiment was performed on NIH 3T3 cells. The NIH 3T3 cells were grown at 37°C in Dulbecco’s modified Eagle’s medium (DMEM) supplemented with 10% fetal bovine serum (FBS) and 1% antibiotic, penicillin-streptomycin (pen-strep), in a humidified incubator with 5% CO2. Sterile conditions were maintained at all times. Cells (~10^5 cells/well) were seeded in 96-well plates and allowed to adhere overnight. The cells were subsequently given different quantities of the lead compounds D2573, D2148, and D63 (12.5 μg/mL, 25 μg/mL, and 50 μg/mL, respectively). A conventional 3-(4,5-dimethylthiazol-2-yl)-2,5-diphenyl tetrazolium bromide (MTT) test was used to measure cell survival after 24 h. The supernatants were removed, and each well was filled with 90 μL of new medium and 10 μL of MTT (1 mg/mL) solution, which was then incubated for 4 h at 37°C. The formazan crystals generated during the reduction of MTT were dissolved in 150 μL of dimethyl sulfoxide (DMSO), and the absorbance was measured by measuring the optical density using a spectrophotometer at a wavelength of 570 nm.

[2] = system: NIH 3T3 cells; test: MTT cytotoxicity assay; format: cell-based; conditions: 24 h; for cellular viability: 50 μg/mL; for cytotoxicity (result in words): up to 50 μg/mL
Description: as §1, §2

[3] = target: T1, NDM-1 (Klebsiella pneumoniae, UniProt C7C422); test: Fluorescence quenching; format: binding; conditions: 298 K
T1 construct: made in house; host or cells: E. coli (DH5 and BL21(DE3) named)
T1 sequence (C7C422 29-270, looked up, species assumed): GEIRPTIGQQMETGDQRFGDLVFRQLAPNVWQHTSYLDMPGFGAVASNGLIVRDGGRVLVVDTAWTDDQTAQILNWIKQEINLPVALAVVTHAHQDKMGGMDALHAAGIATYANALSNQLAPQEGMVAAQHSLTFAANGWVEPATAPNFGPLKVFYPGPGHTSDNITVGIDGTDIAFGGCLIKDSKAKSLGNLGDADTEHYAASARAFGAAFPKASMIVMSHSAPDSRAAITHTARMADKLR
Description: (§3) Fluorescence quenching can be either dynamic or static in nature. The fluorescence intensity was calculated to understand the mechanism of protein quenching from all three classes of β-lactamase with D63, D2148, and D2573. The KSV (Stern–Volmer quenching constant; [Q] is the concentration of inhibitor) of all protein-inhibitor complexes was calculated from the slope of plot Fo/F (fluorescence intensities in the absence and presence of quencher) versus [Q], whereas number of binding sites (n) and Kb values for all combinations of proteins and inhibitors were determined by the slope and intercept of plot log (Fo/F – 1) versus log[Q] (Table 9).
(§4) A Shimadzu RF-5301PC spectrofluorometer (Shimadzu Corporation, Kyoto, Japan) was used to measure the fluorescence spectra. Quenching was observed by measuring intrinsic fluorescence at 295 nm between 300 and 400 nm. The emission and excitation slits were both adjusted to 5 nm. Then, 2 μM each D2573, D2148, and D63 were added to a 3-mL sample containing 2 μM protein ([…]). All the fluorescence intensities were corrected for the inner filter effect. The determination of the number of binding sites (n) and binding constant (Kb) at 298 K temperature for all the protein-inhibitor combinations from the Stern-Volmer equation and modified Stern-Volmer equation (equations 4 and 5). (4) (F0)/F = 1 + Ksv[Q] (5) Log (F0 − F)/F= logKb + n log[Q]
(§5) Fo and F are the fluorescence intensities in the absence and presence of quencher (D63, D2148, D2573).

[4] = target: T2, SHV-1 (Klebsiella pneumoniae, UniProt P0AD64); test: Fluorescence quenching; format: binding; conditions: 298 K
T2 construct: made in house; host or cells: E. coli (DH5 and BL21(DE3) named; pET-28a)
T2 sequence (P0AD64 22-286): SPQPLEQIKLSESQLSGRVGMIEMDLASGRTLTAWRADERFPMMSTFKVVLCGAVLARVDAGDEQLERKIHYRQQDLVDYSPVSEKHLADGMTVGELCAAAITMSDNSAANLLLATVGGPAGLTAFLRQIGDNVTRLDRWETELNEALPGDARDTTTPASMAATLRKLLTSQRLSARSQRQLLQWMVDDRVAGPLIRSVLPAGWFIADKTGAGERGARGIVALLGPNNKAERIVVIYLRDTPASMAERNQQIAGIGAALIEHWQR
Description: as §3, §4, §5

[5] = target: T3, TEM-1 (Escherichia coli, UniProt P62593); test: Fluorescence quenching; format: binding; conditions: 298 K
T3 construct: made in house; host or cells: E. coli (DH5 and BL21(DE3) named; pET-28a)
T3 sequence (P62593 24-286 limits assumed): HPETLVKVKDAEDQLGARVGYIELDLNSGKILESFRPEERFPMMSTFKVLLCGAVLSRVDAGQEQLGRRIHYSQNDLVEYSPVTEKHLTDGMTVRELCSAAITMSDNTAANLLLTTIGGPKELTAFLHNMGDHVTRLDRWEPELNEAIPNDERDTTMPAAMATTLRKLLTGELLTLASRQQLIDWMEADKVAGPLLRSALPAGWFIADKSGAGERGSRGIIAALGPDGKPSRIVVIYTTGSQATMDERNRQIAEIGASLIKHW
Description: as §3, §4, §5

[6] = target: T4, CTX-M-15 (Escherichia coli, UniProt Q9EXV5); test: Steady-state kinetics of antibiotic hydrolysis with inhibitor; format: biochemical; conditions: inhibitor concentration as per IC50
T4 construct: made in house; host or cells: E. coli (DH5 and BL21(DE3) named)
T4 sequence (Q9EXV5 29-291, species assumed): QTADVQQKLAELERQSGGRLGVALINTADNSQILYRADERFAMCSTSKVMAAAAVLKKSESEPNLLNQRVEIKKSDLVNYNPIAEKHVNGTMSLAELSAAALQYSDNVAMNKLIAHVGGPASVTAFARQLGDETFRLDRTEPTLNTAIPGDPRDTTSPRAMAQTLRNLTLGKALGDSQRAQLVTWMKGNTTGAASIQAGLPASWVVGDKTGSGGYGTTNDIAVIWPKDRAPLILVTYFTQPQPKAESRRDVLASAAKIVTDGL
Description: (§6) The enzyme kinetics parameters (Km, and kcat) for all six proteins/enzymes in combination with different antibiotics (cefotaxime, imipenem, and meropenem), were calculated. The concentration of inhibitors, D63, D2148, and D2573, was as per the IC50 value (Fig. 5); the kinetic parameters are listed in Table 8.
(§7) The steady-state kinetics of all six proteins were determined using the antibiotics:imipenem (Δε295 = −11,500 M^−1 cm^−1), meropenem (Δε297 = −10,940 M^−1 cm^−1), and cefotaxime (Δε264 = −27,250 M^−1 cm^−1). In this study, the D63, D2148, and D2573 inhibitors were tested. Hydrolysis of β-lactam antibiotics was detected by monitoring the variation in absorbance due to cleavage of the β-lactam ring in 50 mM, pH 7.0, phosphate buffer ([40], [41]). For hydrolysis of substrate (cefotaxime, imipenem, and meropenem) kinetics parameters, Km and kcat were calculated by using Michaelis Menten equations (equations 2 and 3). (2) V =Vmax [S]/Km + [S] (3) kcat = Vmax/E where E and S are the enzyme and substrate concentration, Km is the Michaelis-Mentent constant, kcat is the turnover number, and V and Vmax are the initial and maximum velocity of the hydrolysis, respectively.

[7] = target: T1, NDM-1; test: as above; format: biochemical; conditions: inhibitor concentration as per IC50
Description: as §6, §7

[8] = target: T5, Amp-C (Escherichia coli, UniProt P00811); test: as above; format: biochemical; conditions: inhibitor concentration as per IC50
T5 construct: made in house; host or cells: E. coli (DH5 and BL21(DE3) named; pET-28a)
T5 sequence (P00811 20-377): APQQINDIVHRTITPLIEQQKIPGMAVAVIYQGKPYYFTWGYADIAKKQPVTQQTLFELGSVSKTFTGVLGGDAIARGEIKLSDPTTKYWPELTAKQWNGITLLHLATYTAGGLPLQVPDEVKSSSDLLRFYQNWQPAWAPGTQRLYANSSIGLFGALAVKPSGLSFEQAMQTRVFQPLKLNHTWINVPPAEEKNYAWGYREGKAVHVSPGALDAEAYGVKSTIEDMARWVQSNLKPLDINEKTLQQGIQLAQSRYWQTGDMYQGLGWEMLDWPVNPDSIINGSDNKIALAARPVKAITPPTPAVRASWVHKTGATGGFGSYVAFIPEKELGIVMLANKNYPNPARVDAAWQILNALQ
Description: as §6, §7

[9] = target: T2, SHV-1; test: as above; format: biochemical; conditions: inhibitor concentration as per IC50
Description: as §6, §7

[10] = target: T3, TEM-1; test: as above; format: biochemical; conditions: inhibitor concentration as per IC50
Description: as §6, §7

[11] = target: T6, KPC-2 (Klebsiella pneumoniae, UniProt Q9F663); test: as above; format: biochemical; conditions: inhibitor concentration as per IC50
T6 construct: made in house; host or cells: E. coli (DH5 and BL21(DE3) named; pET-28a)
T6 sequence (Q9F663 25-293, looked up, species assumed): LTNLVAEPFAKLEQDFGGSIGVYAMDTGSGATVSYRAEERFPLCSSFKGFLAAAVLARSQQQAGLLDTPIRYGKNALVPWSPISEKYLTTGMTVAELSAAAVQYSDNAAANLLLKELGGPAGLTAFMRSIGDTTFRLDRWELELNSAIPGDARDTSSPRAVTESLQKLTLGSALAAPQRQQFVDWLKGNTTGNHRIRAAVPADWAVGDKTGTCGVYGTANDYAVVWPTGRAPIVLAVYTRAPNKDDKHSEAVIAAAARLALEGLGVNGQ
Description: as §6, §7

## O=C(O)c1ccccc1C(=O)N1CCN(c2nc(-c3ccccc3)ns2)CC1 [D2573, 2-{[4-(3-phenyl-1,2,4-thiadiazol-5-yl)piperazino]carbonyl}benzoic acid]
[1]
  viability at 24 h, 50 μg/mL: 82%
[2]
  cellular viability: > 75%
  cytotoxicity (result in words): nontoxic
[3]
  n (number of binding sites): 0.1842
[4]
  n (number of binding sites): 0.7621
[5]
  n (number of binding sites): 0.750
[6]; cefotaxime
  Km or Ki: 330.1 μΜ
  kcat: 0.9055 S^−1
[6]; imipenem
  kcat: 1.454 S^−1
[6]; meropenem
  Km or Ki: 469.8 μΜ
  kcat: 0.9091 S^−1
[7]; cefotaxime
  Km or Ki: 8,756 μΜ
  kcat: 4.921 S^−1
[7]; imipenem
  Km or Ki: 301.3 μΜ
  kcat: 3.875 S^−1
[7]; meropenem
  Km or Ki: 756.8 μΜ
  kcat: 14.59 S^−1
[8]; cefotaxime
  Km or Ki: 1,522 μΜ
  kcat: 1.5 S^−1
[8]; imipenem
  Km or Ki: 499 μΜ
  kcat: 1.158 S^−1
[8]; meropenem
  Km or Ki: 553 μΜ
  kcat: 1.09 S^−1
[9]; cefotaxime
  Km or Ki: 608 μΜ
  kcat: 0.8431 S^−1
[9]; imipenem
  Km or Ki: 1,138 μΜ
  kcat: 0.958 S^−1
[9]; meropenem
  Km or Ki: 979 μΜ
  kcat: 1.232 S^−1
[10]; cefotaxime
  Km or Ki: 905.2 μΜ
  kcat: 1.056 S^−1
[10]; imipenem
  Km or Ki: 2,665 μΜ
  kcat: 1.454 S^−1
[10]; meropenem
  Km or Ki: 2,129 μΜ
  kcat: 1.563 S^−1
[11]; cefotaxime
  Km or Ki: 549.1 μΜ
  kcat: 0.454 S^−1
[11]; imipenem
  Km or Ki: 878.8 μΜ
  kcat: 0.419 S^−1
[11]; meropenem
  Km or Ki: 2,786 μΜ
  kcat: 1.02 S^−1

## O=C(CN1C(=O)c2ccccc2S1(=O)=O)c1ccc(O)c(O)c1 [D63, 2-[2-(3,4-dihydroxyphenyl)-2-oxoethyl]-1H-1,2-benzisothiazole-1,1,3(2H)-trione]
[1]
  viability at 24 h, 50 μg/mL: ~78%
[2]
  cellular viability: > 75%
  cytotoxicity (result in words): nontoxic
[3]
  n (number of binding sites): 1.6673
[4]
  n (number of binding sites): 0.4791
[5]
  n (number of binding sites): 0.4298
[6]; cefotaxime
  Km or Ki: 742.7 μΜ
  kcat: 0.7320 S^−1
[6]; imipenem
  Km or Ki: 480.5 μΜ
  kcat: 5.572 S^−1
[6]; meropenem
  Km or Ki: 228.4 μΜ
  kcat: 1.723 S^−1
[7]; cefotaxime
  Km or Ki: 410.8 μΜ
  kcat: 1.833 S^−1
[7]; imipenem
  Km or Ki: 258.7 μΜ
  kcat: 18.29 S^−1
[7]; meropenem
  Km or Ki: 1,052 μΜ
  kcat: 9.282 S^−1
[8]; cefotaxime
  Km or Ki: 1,522 μΜ
  kcat: 1.537 S^−1
[8]; imipenem
  Km or Ki: 499.22 μΜ
  kcat: 1.158 S^−1
[8]; meropenem
  Km or Ki: 553.8 μΜ
  kcat: 1.093 S^−1
[9]; cefotaxime
  Km or Ki: 1,375 μΜ
  kcat: 1.621 S^−1
[9]; imipenem
  Km or Ki: 851 μΜ
  kcat: 1.525 S^−1
[9]; meropenem
  Km or Ki: 2,881 μΜ
  kcat: 1.928 S^−1
[10]; cefotaxime
  Km or Ki: 1,353 μΜ
  kcat: 1.051 S^−1
[10]; imipenem
  Km or Ki: 673.1 μΜ
  kcat: 1.194 S^−1
[10]; meropenem
  Km or Ki: 253.5 μΜ
  kcat: 0.6169 S^−1
[11]; cefotaxime
  Km or Ki: 713 μΜ
  kcat: 0.384 S^−1
[11]; imipenem
  Km or Ki: 489.1 μΜ
  kcat: 0.39 S^−1
[11]; meropenem
  Km or Ki: 511.7 μΜ
  kcat: 0.45 S^−1

## O=C(c1ccccc1)C1CCN(C(=O)CN2C(=O)c3ccccc3C2=O)CC1 [D2148, 2-[2-(4-benzoylpiperidino) -2-oxoethyl]-1H-isoindole-1,3(2H)-dione]
[1]
  viability at 24 h, 50 μg/mL: ~78%
[2]
  cellular viability: > 75%
  cytotoxicity (result in words): nontoxic
[3]
  n (number of binding sites): 2.457
[4]
  n (number of binding sites): 0.2952
[5]
  n (number of binding sites): 0.2489
[6]; cefotaxime
  Km or Ki: 670.6 μΜ
  kcat: 838.6 S^−1
[6]; imipenem
  Km or Ki: 675.9 μΜ
  kcat: 2,720 S^−1
[6]; meropenem
  Km or Ki: 9,333 μΜ
  kcat: 17,974 S^−1
[7]; cefotaxime
  Km or Ki: 1,939 μΜ
  kcat: 15.88 S^−1
[7]; imipenem
  Km or Ki: 995.4 μΜ
  kcat: 20.6 S^−1
[7]; meropenem
  Km or Ki: 986.4 μΜ
  kcat: 9.201 S^−1
[8]; cefotaxime
  Km or Ki: 796.6 μΜ
  kcat: 3.401 S^−1
[8]; imipenem
  Km or Ki: 1,136 μΜ
  kcat: 2.631 S^−1
[8]; meropenem
  Km or Ki: 794 μΜ
  kcat: 2.637 S^−1
[9]; cefotaxime
  Km or Ki: 626.2 μΜ
  kcat: 6.751 S^−1
[9]; imipenem
  Km or Ki: 618.4 μΜ
  kcat: 5.535 S^−1
[9]; meropenem
  Km or Ki: 1,376 μΜ
  kcat: 6.436 S^−1
[10]; cefotaxime
  Km or Ki: 757.7 μΜ
  kcat: 6.332 S^−1
[10]; imipenem
  Km or Ki: 689.7 μΜ
  kcat: 0.9853 S^−1
[10]; meropenem
  Km or Ki: 7,537 μΜ
  kcat: 43.13 S^−1
[11]; cefotaxime
  Km or Ki: 358.7 μΜ
  kcat: 3.293 S^−1
[11]; imipenem
  Km or Ki: 301.8 μΜ
  kcat: 3.44 S^−1
[11]; meropenem
  Km or Ki: 491 μΜ
  kcat: 2.47 S^−1

Source: publication PMC9603770, “Broad-Spectrum Inhibitors against Class A, B, and C Type β-Lactamases to Block the Hydrolysis against Antibiotics: Kinetics and Structural Characterization” (Microbiology Spectrum, 2022)
